# Measurements reported in ChEMBL document CHEMBL1201862, “PubChem BioAssay data set” (2004).
# Active and inactive are the calls of the source.
# How the values were obtained:
# [1] = biological target: T1, Mannose-6-phosphate isomerase (Homo sapiens, UniProt P34949); assay: inhibitors of human PMI, primary screen, biochemical, fluorescence intensity, coupled assay (AID 1209)
# T1 sequence (P34949 whole entry): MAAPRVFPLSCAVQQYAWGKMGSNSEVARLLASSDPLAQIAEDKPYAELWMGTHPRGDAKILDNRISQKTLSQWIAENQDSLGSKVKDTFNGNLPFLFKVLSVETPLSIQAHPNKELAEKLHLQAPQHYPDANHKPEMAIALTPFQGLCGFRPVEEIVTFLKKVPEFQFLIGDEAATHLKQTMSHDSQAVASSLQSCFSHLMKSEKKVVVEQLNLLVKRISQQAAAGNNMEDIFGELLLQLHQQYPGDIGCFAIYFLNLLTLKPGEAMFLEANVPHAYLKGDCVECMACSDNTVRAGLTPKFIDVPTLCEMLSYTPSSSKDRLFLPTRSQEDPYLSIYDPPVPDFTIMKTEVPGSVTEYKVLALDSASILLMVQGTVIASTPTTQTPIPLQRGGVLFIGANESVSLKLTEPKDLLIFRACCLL
# [2] = biological target: T2, Peroxisome proliferator-activated receptor gamma/Nuclear receptor coactivator 2 (Homo sapiens, UniProt P37231); type: functional
# [3] = biological target: T3, Peroxisome proliferator-activated receptor gamma/Nuclear receptor coactivator 1 (Homo sapiens, UniProt P37231); type: functional
# [4] = biological target: T4, Peroxisome proliferator-activated receptor gamma/Nuclear receptor coactivator 3 (Homo sapiens, UniProt P37231); type: functional
# HEK293 [5] = assay: cells; conditions: Homo sapiens
# HEK293 [6] = assay: cells; conditions: Homo sapiens; remark: listed apart in the source
# Estrogen receptor beta = Estrogen receptor beta (Homo sapiens, UniProt Q92731);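 note: recombinant ER-beta bound to coactivator SRC1 peptide in presence of estradiol agonist; inhibitors block coactivator peptide binding and lower the FRET signal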
# [7] = A cytotoxicity screen of small molecule inhibitors of the PhoP region in Salmonella typhi identified in the primary screen. [Related pubchem assays: 1850, 1864, 1985 ]; type: functional
# Cytochrome P450 2D6 = Cytochrome P450 2D6 (Homo sapiens, UniProt P10635);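 note: CYP2D6 member of a cytochrome P450 panel assay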
# Cytochrome P450 1A2 = biological target: T5, Cytochrome P450 1A2 (Homo sapiens, UniProt P05177);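 note: PubChem cytochrome P450 panel assay, CYP1A2 panel member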
# T5 sequence (P05177 whole entry): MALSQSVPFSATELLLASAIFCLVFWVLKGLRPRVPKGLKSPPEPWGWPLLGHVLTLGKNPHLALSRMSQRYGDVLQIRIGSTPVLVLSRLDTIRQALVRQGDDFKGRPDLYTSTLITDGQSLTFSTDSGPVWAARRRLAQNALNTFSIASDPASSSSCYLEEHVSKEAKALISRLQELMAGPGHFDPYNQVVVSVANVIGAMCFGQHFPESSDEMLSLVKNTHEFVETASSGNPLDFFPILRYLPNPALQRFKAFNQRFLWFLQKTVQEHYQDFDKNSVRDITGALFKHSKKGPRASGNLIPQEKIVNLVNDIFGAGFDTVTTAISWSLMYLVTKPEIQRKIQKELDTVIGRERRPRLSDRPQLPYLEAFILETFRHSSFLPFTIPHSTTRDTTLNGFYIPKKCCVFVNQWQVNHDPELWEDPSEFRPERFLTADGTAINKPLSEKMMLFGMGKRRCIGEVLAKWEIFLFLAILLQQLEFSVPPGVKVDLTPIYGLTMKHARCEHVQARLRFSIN
# [8] = inhibitors of firefly luciferase expression or activity, dose response, H4 neuroglioma cells, luminescence (AID 1990); type: functional, cell-based
# [9] = Luminescence Cell-Based Dose Response HTS to Identify Inhibitors of 5'UTR Stem-Loop Driven Prion Protein mRNA Translation in H4 Neuroglioblastoma Cells. [Related pubchem assays: 1827 (Project Summary), 1813 (Primary HTS)]; type: functional
# [10] = inhibitors of SNCA 5'UTR-driven reporter translation, confirmation, H4 neuroglioma cells, luminescence (AID 1988); type: functional, cell-based
# [11] = biological target: Luciferin 4-monooxygenase (Photinus pyralis, UniProt P08659); assay: firefly luciferase enzyme inhibitors, dose response, biochemical, luminescence (AID 1891)
# [12] = Luminescence Cell-Based Dose Confirmation HTS to Identify Inhibitors of Platelet Dense Granule Release. [Related pubchem assays: 1663 (Primary HTS), 1678 (Summary of Project)]; type: functional
# [13] = biological target: T6, High affinity choline transporter 1 (Homo sapiens, UniProt Q9GZV3); assay: CHT inhibitors, dose response, cell-based, 5-point CRC, membrane potential dye (AID 504840); type: functional
# T6 sequence (Q9GZV3 whole entry): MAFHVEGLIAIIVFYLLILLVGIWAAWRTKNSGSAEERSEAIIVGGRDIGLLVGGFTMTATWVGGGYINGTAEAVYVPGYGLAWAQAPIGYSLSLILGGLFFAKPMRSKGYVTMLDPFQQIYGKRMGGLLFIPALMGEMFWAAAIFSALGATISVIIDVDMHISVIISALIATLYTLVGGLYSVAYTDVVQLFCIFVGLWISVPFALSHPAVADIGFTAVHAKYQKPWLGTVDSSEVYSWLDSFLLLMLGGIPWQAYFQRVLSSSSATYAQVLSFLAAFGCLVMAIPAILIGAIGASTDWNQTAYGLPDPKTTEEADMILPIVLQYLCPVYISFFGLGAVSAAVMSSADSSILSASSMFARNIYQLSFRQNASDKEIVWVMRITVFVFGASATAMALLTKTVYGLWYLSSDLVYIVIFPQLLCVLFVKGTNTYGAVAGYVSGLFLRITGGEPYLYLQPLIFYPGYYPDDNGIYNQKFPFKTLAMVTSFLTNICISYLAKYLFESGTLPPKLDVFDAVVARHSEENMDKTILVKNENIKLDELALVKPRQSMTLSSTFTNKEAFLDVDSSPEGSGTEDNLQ
# [14] = biological target: T7, Rac GTPase-activating protein 1 (Homo sapiens, UniProt Q9H0H5); assay: MgcRacGAP GTPase-activating activity inhibitors, confirmation, biochemical, ADP Hunter fluorescence, primary and confirmatory (AID 624330); type: functional
# T7 sequence (Q9H0H5 whole entry): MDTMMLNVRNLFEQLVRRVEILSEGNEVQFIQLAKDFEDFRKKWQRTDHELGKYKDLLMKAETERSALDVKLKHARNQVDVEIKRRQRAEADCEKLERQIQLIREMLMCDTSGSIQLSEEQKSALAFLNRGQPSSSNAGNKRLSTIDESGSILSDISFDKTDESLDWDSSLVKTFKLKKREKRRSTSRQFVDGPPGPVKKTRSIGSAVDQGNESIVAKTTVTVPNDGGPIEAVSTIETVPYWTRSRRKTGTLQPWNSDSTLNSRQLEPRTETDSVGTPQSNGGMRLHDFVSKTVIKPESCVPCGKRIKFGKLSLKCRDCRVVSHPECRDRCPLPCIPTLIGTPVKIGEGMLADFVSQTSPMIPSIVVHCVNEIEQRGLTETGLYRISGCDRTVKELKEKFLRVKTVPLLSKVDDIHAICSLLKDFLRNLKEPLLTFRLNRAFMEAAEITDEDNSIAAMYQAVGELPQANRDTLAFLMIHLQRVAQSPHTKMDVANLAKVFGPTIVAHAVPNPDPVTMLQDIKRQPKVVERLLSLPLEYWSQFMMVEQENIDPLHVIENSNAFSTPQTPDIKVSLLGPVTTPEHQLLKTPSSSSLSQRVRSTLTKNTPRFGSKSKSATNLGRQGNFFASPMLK
# Protein Tat = biological target: T8, Protein Tat (Human immunodeficiency virus type 1 group M subtype B (isolate HXB2)(HIV-1), UniProt P04608); type: functional;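 note: tat binding to TAR RNA read out by fluorescence polarization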
# T8 sequence (P04608 whole entry): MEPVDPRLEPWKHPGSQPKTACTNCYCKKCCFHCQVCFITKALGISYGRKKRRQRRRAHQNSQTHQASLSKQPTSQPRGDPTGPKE
# [15] = Luminescence Cell-Based Dose Retest to Confirm Inhibitors of Cancer Stem Cells. [Related pubchem assays (depositor defined):AID2717, AID2721]; type: functional; conditions: Homo sapiens
# [16] = cytotoxicity in HEK-293T cells, dose response, cytotoxicity control for TCR NF-kB inhibitor project, luminescence, T-cell screen hits (AID 489026); type: functional, cell-based;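 note: cells exposed to compound about 14 hours before the viability readout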
# [17] = biological target: T3, Peroxisome proliferator-activated receptor gamma/Nuclear receptor coactivator 1; assay: (§1) TR-FRET dose response biochemical High Throughput Screening assay for agonists of the steroid receptor coactivator 1 (SRC-1) recruitment by the peroxisome proliferator-activated receptor gamma (PPAR gamma): non-selective agonists. [Related pubchem assays (depositor defined):AID1300, AID1808, AID504735, AID631]; type: protein assay
# [18] = biological target: T4, Peroxisome proliferator-activated receptor gamma/Nuclear receptor coactivator 3; assay: as §1, with “3 (SRC-3)” for “1 (SRC-1)”, “assays: 1301 (Confirmation screen.), 1048 (Primary screen.)]” for “assays (depositor defined):AID1300, AID1808, AID504735, AID631]”; type: functional
# [19] = biological target: T2, Peroxisome proliferator-activated receptor gamma/Nuclear receptor coactivator 2; assay: TR-FRET dose response biochemical High Throughput Screening assay for agonists of the steroid receptor coactivator 2 (SRC-2) recruitment by the peroxisome proliferator-activated receptor gamma (PPAR gamma): non-selective agonists. [Related pubchem assays: 1297, 1032 ]; type: functional
# [20] = THP-1 cell cytotoxicity, dose response, cytotoxicity control for Vif-APOBEC3G degradation inhibitor project, THP-1 cells (AID 1117359); type: functional; conditions: Human immunodeficiency virus 1, THP-1
# T4 sequence (P37231 whole entry): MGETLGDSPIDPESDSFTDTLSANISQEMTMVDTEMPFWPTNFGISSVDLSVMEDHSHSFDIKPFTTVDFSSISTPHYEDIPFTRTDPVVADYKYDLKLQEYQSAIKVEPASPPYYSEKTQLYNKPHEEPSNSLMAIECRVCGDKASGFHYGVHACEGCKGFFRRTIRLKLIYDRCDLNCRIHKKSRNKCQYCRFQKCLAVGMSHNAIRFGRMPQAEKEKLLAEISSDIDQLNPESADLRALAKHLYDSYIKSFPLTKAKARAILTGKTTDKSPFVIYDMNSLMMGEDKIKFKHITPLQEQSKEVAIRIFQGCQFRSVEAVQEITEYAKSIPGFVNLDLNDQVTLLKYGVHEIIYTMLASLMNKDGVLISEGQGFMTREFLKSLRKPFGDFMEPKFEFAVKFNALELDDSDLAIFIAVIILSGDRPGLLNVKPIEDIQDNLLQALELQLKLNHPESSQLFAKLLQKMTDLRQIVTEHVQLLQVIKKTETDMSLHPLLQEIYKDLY
# T4 sequence (Q9Y6Q9 whole entry, further chain): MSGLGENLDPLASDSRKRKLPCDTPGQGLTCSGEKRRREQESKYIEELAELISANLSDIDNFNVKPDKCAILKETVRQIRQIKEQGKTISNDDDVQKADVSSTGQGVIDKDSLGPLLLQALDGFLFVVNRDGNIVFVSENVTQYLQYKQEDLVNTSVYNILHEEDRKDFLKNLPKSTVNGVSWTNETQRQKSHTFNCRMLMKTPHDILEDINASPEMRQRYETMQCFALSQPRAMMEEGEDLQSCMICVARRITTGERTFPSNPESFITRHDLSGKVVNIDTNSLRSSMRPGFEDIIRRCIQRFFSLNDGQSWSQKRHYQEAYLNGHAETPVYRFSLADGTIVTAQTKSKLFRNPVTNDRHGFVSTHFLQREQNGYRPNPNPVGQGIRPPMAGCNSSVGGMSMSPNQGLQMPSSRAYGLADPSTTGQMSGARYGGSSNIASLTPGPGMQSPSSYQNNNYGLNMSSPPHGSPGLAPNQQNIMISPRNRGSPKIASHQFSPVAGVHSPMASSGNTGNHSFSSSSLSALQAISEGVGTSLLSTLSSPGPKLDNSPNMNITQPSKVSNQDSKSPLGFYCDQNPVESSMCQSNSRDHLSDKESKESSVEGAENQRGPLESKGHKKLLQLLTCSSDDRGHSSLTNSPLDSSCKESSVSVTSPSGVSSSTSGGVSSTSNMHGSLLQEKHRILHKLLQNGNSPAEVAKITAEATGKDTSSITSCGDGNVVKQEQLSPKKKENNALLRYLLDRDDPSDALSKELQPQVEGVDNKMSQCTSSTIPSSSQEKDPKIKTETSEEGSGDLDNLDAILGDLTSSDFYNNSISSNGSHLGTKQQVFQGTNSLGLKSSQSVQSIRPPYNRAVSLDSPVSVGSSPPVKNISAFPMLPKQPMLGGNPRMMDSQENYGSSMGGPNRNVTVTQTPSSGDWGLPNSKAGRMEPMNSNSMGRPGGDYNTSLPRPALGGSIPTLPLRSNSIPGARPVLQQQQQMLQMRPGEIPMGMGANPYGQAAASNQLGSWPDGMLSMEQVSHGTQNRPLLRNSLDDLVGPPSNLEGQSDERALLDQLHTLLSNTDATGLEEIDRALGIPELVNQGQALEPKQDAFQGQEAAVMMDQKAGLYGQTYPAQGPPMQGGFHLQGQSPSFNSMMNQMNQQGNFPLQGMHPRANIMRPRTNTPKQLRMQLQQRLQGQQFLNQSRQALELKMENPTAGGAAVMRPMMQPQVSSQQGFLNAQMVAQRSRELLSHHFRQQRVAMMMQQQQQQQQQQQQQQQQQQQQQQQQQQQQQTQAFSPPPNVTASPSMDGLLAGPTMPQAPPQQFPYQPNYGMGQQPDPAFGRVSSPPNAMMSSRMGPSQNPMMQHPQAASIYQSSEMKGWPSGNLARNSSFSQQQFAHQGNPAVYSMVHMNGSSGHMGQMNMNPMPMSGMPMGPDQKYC
# T3 sequence (P37231 whole entry): as the sequence (P37231 whole entry) above
# T3 sequence (Q15788 whole entry, further chain): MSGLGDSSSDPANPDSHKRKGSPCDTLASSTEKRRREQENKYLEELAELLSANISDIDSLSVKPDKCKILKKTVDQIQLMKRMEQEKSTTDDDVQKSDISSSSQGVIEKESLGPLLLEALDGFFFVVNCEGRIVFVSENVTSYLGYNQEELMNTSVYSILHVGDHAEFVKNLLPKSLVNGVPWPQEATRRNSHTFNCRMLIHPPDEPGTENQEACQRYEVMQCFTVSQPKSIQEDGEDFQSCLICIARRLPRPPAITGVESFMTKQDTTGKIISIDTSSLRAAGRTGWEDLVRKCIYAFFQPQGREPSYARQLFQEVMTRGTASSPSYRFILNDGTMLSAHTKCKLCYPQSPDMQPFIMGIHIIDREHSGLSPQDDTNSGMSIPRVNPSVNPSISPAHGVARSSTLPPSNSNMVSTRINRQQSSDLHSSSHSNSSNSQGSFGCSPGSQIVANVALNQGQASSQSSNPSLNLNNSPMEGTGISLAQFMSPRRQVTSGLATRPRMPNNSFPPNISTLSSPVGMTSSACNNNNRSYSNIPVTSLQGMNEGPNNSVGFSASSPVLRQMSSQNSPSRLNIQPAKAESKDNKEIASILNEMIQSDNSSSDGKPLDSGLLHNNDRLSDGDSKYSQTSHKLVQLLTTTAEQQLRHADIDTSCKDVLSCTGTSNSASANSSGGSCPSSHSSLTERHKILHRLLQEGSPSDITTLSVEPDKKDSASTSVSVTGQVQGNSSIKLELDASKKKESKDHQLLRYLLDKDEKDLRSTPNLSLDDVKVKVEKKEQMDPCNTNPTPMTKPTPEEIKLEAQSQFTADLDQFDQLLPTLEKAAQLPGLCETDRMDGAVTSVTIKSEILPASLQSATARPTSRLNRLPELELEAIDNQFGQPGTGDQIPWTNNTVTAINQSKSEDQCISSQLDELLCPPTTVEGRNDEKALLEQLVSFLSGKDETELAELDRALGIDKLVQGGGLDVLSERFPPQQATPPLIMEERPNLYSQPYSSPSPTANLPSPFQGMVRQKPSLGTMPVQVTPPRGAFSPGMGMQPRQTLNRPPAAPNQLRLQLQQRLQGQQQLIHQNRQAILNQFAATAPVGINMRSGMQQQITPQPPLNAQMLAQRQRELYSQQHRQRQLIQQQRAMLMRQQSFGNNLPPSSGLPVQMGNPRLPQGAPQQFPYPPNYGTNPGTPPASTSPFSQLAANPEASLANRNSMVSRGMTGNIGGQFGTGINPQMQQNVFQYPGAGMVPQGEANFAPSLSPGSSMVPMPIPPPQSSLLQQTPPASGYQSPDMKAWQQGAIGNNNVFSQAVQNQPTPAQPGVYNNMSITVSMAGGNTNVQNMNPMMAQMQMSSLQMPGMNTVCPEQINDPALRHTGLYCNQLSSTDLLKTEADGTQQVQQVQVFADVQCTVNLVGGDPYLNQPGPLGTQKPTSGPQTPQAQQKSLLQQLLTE
# Sequence of Estrogen receptor beta (Q92731 whole entry): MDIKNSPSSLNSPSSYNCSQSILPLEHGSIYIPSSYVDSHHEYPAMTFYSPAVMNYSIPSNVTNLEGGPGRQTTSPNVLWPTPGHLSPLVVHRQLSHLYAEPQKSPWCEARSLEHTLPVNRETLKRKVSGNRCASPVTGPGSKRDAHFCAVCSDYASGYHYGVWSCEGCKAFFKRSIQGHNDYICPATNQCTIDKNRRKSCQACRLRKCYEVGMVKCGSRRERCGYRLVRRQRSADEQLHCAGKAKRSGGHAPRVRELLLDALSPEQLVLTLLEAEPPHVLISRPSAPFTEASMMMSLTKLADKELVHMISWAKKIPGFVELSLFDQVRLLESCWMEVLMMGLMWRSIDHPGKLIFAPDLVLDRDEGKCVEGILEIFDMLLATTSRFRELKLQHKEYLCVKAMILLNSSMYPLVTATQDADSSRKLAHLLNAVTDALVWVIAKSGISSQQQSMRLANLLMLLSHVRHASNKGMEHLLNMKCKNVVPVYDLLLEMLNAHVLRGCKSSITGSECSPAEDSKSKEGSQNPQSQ
# Sequence of Cytochrome P450 2D6 (P10635 whole entry): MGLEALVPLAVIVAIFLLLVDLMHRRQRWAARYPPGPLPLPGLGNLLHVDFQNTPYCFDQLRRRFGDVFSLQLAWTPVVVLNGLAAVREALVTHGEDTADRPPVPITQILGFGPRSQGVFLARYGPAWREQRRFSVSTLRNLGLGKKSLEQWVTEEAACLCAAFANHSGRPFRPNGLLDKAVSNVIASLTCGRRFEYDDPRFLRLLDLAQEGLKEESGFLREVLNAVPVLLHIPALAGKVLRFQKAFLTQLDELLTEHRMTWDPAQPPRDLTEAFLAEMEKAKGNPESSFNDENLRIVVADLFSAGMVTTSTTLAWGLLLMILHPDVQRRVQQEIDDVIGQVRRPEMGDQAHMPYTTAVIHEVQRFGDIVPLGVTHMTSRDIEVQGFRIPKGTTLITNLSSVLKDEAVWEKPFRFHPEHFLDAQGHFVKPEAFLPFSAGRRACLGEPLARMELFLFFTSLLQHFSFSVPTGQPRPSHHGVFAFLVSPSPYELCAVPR
structure (smiles),measurement,setting,value
COc1ccccc1CSc1nc(-c2ccc([N+](=O)[O-])cc2)c[nH]1,IC50,[1],> 50 µM (not active)
COc1ccc(-c2noc(-c3ccc(Br)o3)n2)cc1OC,EC50,[2],63 µM (not active)
same,EC50,[3],64.1 µM (not active)
same,EC50,[4],68.6 µM (not active)
Oc1ncnc2c1c(-c1ccccc1)cn2-c1ccc(F)cc1,EC50,HEK293 [5],> 59.6 µM (inactive)
same,EC50,HEK293 [6],> 59.6 µM (inactive)
Cc1ccc(-c2ccc(/C=C(\C#N)C(N)=S)o2)c([N+](=O)[O-])c1,EC50,[2],> 79.4 µM (not active)
same,EC50,[3],> 79.4 µM (not active)
same,EC50,[4],> 79.4 µM (not active)
Cn1c(=O)c2c(ncn2CCCNC2=CC(C)(C)CC(=O)C2)n(C)c1=O,IC50,Estrogen receptor beta,> 50 µM (not active)
COc1ccc(N2C(=O)CC(N3CC=C(c4ccccc4)CC3)C2=O)cc1 (centres undefined),EC50,[7],> 50 µM (active)
Cc1ccc2nc(SCC(=O)NCc3cccs3)c(C#N)cc2c1,EC50,[2],11.6 µM (not active)
same,EC50,[3],19 µM (not active)
same,EC50,[4],20.8 µM (not active)
same,AC50,Cytochrome P450 2D6,0.316 µM (inconclusive)
same,AC50,Cytochrome P450 1A2,0.708 µM (inconclusive)
COc1ccc(CNCC(O)COc2ccc(C)cc2[N+](=O)[O-])cc1 (centres undefined),EC50,[7],> 50 µM (active)
COc1cc2c(cc1OC)-c1cc(NC3CCCCCCC3)nc(=O)n1CC2,EC50,[8],28.4 µM (active)
same,EC50,[9],0.18 µM (active)
same,EC50,[10],> 120 µM (not active)
same,EC50,[11],> 112 µM (not active)
same,EC50,[12],6.92 µM (active)
same,IC50,[13],7.99 µM (active)
same,EC50,HEK293 [5],> 59.7 µM (inactive)
same,EC50,HEK293 [6],> 59.7 µM (inactive)
C/C(=C\C(=O)c1cccnc1)Nc1ccc(O)cc1,IC50,[14],14.7 µM (active)
same,IC50,Protein Tat,26.2 µM (inconclusive)
Cc1ccc(C2=NN=C(NC(=O)C(F)(F)F)SC2)cc1,IC50,[1],> 50 µM (not active)
Cc1ccc(C)c(Cn2c(=O)n(-c3ccc(CC(=O)NCc4ccco4)cc3)c(=O)c3sccc32)c1,IC50,Estrogen receptor beta,> 50 µM (not active)
COc1ccc([N+](=O)[O-])cc1Nc1c2ccccc2nc2ccccc12,AC50,[15],0.956 µM (active)
same,IC50,[16],> 80 µM (inactive)
same,EC50,HEK293 [5],> 59.6 µM (inactive)
same,EC50,HEK293 [6],> 59.6 µM (inactive)
CCCC(=O)Nc1nc(C)c(C(C)=O)s1,EC50,[17],> 79.4 µM (inactive)
same,EC50,[18],> 79.4 µM (not active)
same,EC50,[19],137 µM (not active)
CC(C)CNC(CC(=O)O)c1ccccc1 (centres undefined),EC50,[7],> 50 µM (active)
Cc1cc(C)cc(NCc2cc3c(cc2[N+](=O)[O-])OCO3)c1,IC50,Protein Tat,> 100 µM (inconclusive)
same,CC50,[20],> 40 µM (active)
